# Entries after “also recorded” stand apart in the source; their conditions may differ.
# Biological target: FKBP12 (Homo sapiens, UniProt P62942)
# Test: Inhibition of peptidyl-prolyl isomerase (rotamase) activity, chymotrypsin-coupled assay (Ki test procedure)
# Assay type: biochemical
# Details: apparent Ki, rotamase inhibition of FKBP, substrate N-succinyl-Ala-Ala-Pro-Phe-p-nitroanilide
# Experimental: The inhibition of the prolyl peptidyl cis-trans isomerase activity of FKBP may be measured as an indicator of this affinity.
# The cis-trans isomerization of an alanine-proline bond in a model substrate, N-succinyl-Ala-Ala-Pro-Phe-p-nitroanilide, is monitored spectrophotometrically in a chymotrypsin-coupled assay, which releases para-nitroanilide from the trans form of the substrate. The inhibition of this reaction caused by the addition of different concentrations of inhibitor is determined, and the data is analyzed as a change in first-order rate constant as a function of inhibitor concentration to yield the apparent K1 values.
# In a plastic cuvette are added 950 ml of ice cold assay buffer (25 mM HEPES, pH 7.8, 100 mM NaCl), 10 ml of FKBP (2.5 mM in 10 mM Tris-Cl pH 7.5, 100 mM NaCl, 1 mM dithiothreitol), 25 ml of chymotrypsin (50 mg/ml in 1 mM HCl) and 10 ml of test compound at various concentrations in dimethyl sulfoxide.
# Chain of FKBP12 (P62942 whole entry, species assumed): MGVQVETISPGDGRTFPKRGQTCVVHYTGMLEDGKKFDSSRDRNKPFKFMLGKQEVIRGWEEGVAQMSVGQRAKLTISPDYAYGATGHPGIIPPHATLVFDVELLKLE
row,SMILES,Ki
1,"CCC(C)(C)C(=O)C(=O)N1CCC[C@H]1C(=O)OCCCc1cc(OC)c(OC)c(OC)c1 [Compound 3, 3-(3,4,5-trimethoxyphenyl)-1-propyl (2S)-1-(3,3-dimethyl-1,2-dioxopentyl)-2-pyrrolidine-carboxylate]",200 nM
2,"CCC(C)(C)C(=O)C(=O)N1CCC[C@H]1C(=O)OCCc1cc(OC)c(OC)c(OC)c1 [Compound 16, 2-(3,4,5-trimethoxyphenyl)-1-ethyl (2S)-1-(3,3-dimethyl-1,2-dioxopentyl)-2-pyrrolidine-carboxylate]",120 nM
3,"CCC(C)(C)C(=O)C(=O)N1CCC[C@H]1C(=O)OCCCc1cccnc1 [Compound 17, 3-(3-Pyridyl)-1-propyl (2S)-1-(3,3-dimethyl-1,2-dioxopentyl)-2-pyrrolidinecarboxylate]",5 nM
4,"CCC(C)(C)C(=O)C(=O)N1CCC[C@H]1C(=O)OCCCc1ccccn1 [Compound 18, 3-(2-Pyridyl)-1-propyl (2S)-1-(3,3-dimethyl-1,2-dioxopentyl)-2-pyrrolidinecarboxylate]",195 nM
5,"CC(C)(C)C(=O)C(=O)N1CCC[C@H]1C(=O)OCCCc1ccccc1 [Compound 21, 3-phenyl-1-propyl (2S)-1-(2-tert-butyl-1,2-dioxoethyl)-2-pyrrolidinecarboxylate]",95 nM
6,"O=C(CCC1CCCCC1)C(=O)N1CCC[C@H]1C(=O)OCCCc1ccccc1 [Compound 22, 3-phenyl-1-propyl (2S)-1-(2-cyclohexyl-ethyl-1,2-dioxoethyl)-2-pyrrolidinecarboxylate]",1020 nM
7,"O=C(CCC1CCCCC1)C(=O)N1CCC[C@H]1C(=O)OCCCc1cccnc1 [Compound 23, 3-(3-pyridyl)-1-propyl (2S)-1-(2-cyclohexylethyl-1,2-dioxoethyl)-2-pyrrolidinecarboxylate]",1400 nM
8,"CC(C)(C)C(=O)C(=O)N1CCC[C@H]1C(=O)OCCCc1cccnc1 [Compound 24, 3-(3-pyridyl)-1-propyl (2S)-1-(2-tert-butyl-1,2-dioxoethyl)-2-pyrrolidinecarboxylate]",3 nM
9,"CCC(C)(C)C(=O)C(=O)N1CCC[C@H]1C(=O)OCCC(c1ccccc1)c1ccccc1 [Compound 25, 3,3-diphenyl-1-propyl (2S)-1-(3,3-dimethyl-1,2-dioxopentyl)-2-pyrrolidinecarboxylate]",5 nM

# Now from value to molecule:
row,Ki,SMILES
1,250 nM,"CCC(C)(C)C(=O)C(=O)N1CCC[C@H]1C(=O)OCCCc1cc(OC)ccc1OC [Compound 14, 3-(2,5-dimethoxyphenyl)-1-propyl (2S)-1-(3,3-dimethyl-1,2-dioxopentyl)-2-pyrrolidine-carboxylate]"
2,200 nM,"CCC(C)(C)C(=O)C(=O)N1CCC[C@H]1C(=O)OCCCC1CCCCC1 [Compound 7, 3-cyclohexyl-1-propyl (2S)-1-(3,3-dimethyl-1,2-dioxopentyl)-2-pyrrolidinecarboxylate]"
3,170 nM,"CCC(C)(C)C(=O)C(=O)N1CCC[C@H]1C(=O)OCCCc1ccc2c(c1)OCO2 [Compound 5, 3-(4,5-methylenedioxyphenyl)-1-propyl (2S)-1-(3,3-dimethyl-1,2-dioxopentyl)-2-pyrrolidine-carboxylate]"
4,23 nM,"CCC(C)(C)C(=O)C(=O)N1CCC[C@H]1C(=O)OCCCc1ccncc1 [Compound 19, 3-(4-Pyridyl)-1-propyl (2S)-1-(3,3-dimethyl-1,2-dioxopentyl)-2-pyrrolidinecarboxylate]"
5,5 nM,"CC(C)(C)C(=O)C(=O)N1CCC[C@H]1C(=O)OCCC(c1ccccc1)c1ccccc1 [Compound 28, 3,3-Diphenyl-1-propyl (2S)-1-(3,3-dimethyl-1,2-dioxobutyl)-2-pyrrolidinecarboxylate]"

# Test system: C57 black 6 mice
# Test: In vivo hair generation test, Experiment A (topical, shaved area)
# Details: 30 μM topical in 20% propylene glycol, 3 applications over 5 days, after six weeks; listed as GPI 1046
# Excerpt: Care was taken not to nick or cause abrasion to the underlaying dermal layers. The animals were in anagen growth phase, as indicated by the pinkish color of the skin. […] Hair growth was quantitated by the percent of shaved area covered by new hair growth during this time period.
row,SMILES,hair regrowth in the shaved area
1,"CCC(C)(C)C(=O)C(=O)N1CCC[C@H]1C(=O)OCCCc1cccnc1 [Compound 17, 3-(3-Pyridyl)-1-propyl (2S)-1-(3,3-dimethyl-1,2-dioxopentyl)-2-pyrrolidinecarboxylate]","essentially, complete hair regrowth; also recorded: essentially complete hair regrowth"

# Test system: hair growth
# Test: not given
# Details: topical, but not oral, application; cited from earlier work
row,SMILES,stimulation of hair growth
1,C=CC[C@@H]1/C=C(\C)C[C@H](C)C[C@H](OC)[C@H]2O[C@@](O)(C(=O)C(=O)N3CCCC[C@H]3C(=O)O[C@H](/C(C)=C/[C@@H]3CC[C@@H](O)[C@H](OC)C3)[C@H](C)[C@@H](O)CC1=O)[C@H](C)C[C@@H]2OC [FK506],stimulates hair growth in a dose-dependent manner

# Reference: US6943187B2, “Pyrrolidine derivative hair growth compositions and uses” (GPI Nil Holdings, Inc., priority 1997, dated 2005)
